Key:
[1] = Myelosuppression and neutropenia in preclinical models; conditions: in comparison to Comparator-1
Neutropenia, FIG. 2 = assay type: cell-based; conditions: ovarian cancer cell line; compared to Comparator 1
breast cancer cells = experiment: Growth of cancer cell lines resistant to Comparator-1; assay type: cell-based; conditions: breast cancer cells resistant to Comparator-1
ovarian cancer cells = experiment: Growth of ovarian cancer cell lines; assay type: cell-based
prostate cancer cells = experiment: Growth of cancer cell lines resistant to Comparator-1; assay type: cell-based; conditions: prostate cancer cells resistant to Comparator-1

myelosuppression [1]: less myelosuppression | neutropenia [1]: less neutropenia | neutropenia (FIG. 2) (Neutropenia, FIG. 2): reduced neutropenia
SMILES: CN1CCN(c2ccc(Nc3ncc4cc(C#N)c(=O)n(C5CCCC5)c4n3)cc2)CC1 [Compound 1, 8-cyclopentyl-2-((4-(4-methylpiperazin-1-yl)phenyl)amino)-7-oxo-7,8-dihydropyrido[2,3-d]pyrimidine-6-carbonitrile]
growth of cancer cell lines (breast cancer cells): inhibited growth | inhibition of ovarian cancer cell line growth (FIG. 3) (ovarian cancer cells; compared to Comparator 1): higher inhibition | growth of cancer cell lines (ovarian cancer cells; ovarian cancer cells resistant to Comparator-1): inhibited growth | growth of cancer cell lines (prostate cancer cells): inhibited growth

From US20240374601A1, “METHODS AND COMPOSITIONS FOR TREATING CANCER” (Onconova Therapeutics, Inc., priority 2021, published 2024)
